# In patent US10954252B1, “Inhibitors of human immunodeficiency virus replication” (ViiV HEALTHCARE UK (NO.5) LIMITED, priority 2017, dated 2021):
# Key:
# [1] = system: recombinant NL4-3 virus (nef section replaced with Renilla luciferase gene) in MT-2 cells; assay: HIV cell culture assay (antiviral activity, luciferase readout); assay type: cell-based; conditions: MT-2 cells infected for 4-5 days with recombinant NL4-3 luciferase virus
# Procedure, shortened: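 Serially diluted compounds were present throughout a 4-5 day infection of MT-2 cells by recombinant NL4-3 whose nef region partly encodes Renilla luciferase. Antiviral activity was taken from live-cell luciferase signal, with the 50% effective concentration fitted by the exponential median effect equation.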
# [2] = Compound cytotoxicity, XTT-based colorimetric assay; assay type: cell-based; conditions: human, uninfected MT2 cells
# Procedure, shortened: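 XTT colorimetric read-out on day 4 gave CC50 values, using MT2 cells left uninfected but otherwise handled as in the antiviral assay.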
SMILES,"EC50 ([1]; Renilla, NL43, Table 1) [nM]","CC50 at 4 days ([2]; Table 1, day 4, XTT) [nM]","EC50 ([1]; Renilla, NL43, Table 1a) [nM]","CC50 at 4 days ([2]; Table 1a, day 4, XTT) [nM]",EC50 ([1]; Table 1a) [nM]
"N#Cc1cc(-c2cc3[nH]ncc3nc2[C@H](Cc2cc(F)cc(F)c2)NC(=O)Cn2nc(C(F)F)c3c2C(F)(F)[C@@H]2C[C@H]32)ccc1Cl [Example 10.15, N—((S)-1-(6-(4-chloro-3-cyanophenyl)-1H-pyrazolo[4,3-b]pyridin-5-yl)-2-(3,5-difluorophenyl)ethyl)-2-((3bS,4aR)-3-(difluoromethyl)-5,5-difluoro-3b,4,4a,5-tetrahydro-1H-cyclopropa[3,4]cyclopenta[1,2-c]pyrazol-1-yl)acetamide]",1170,5500,,,
Cn1nc(NS(C)(=O)=O)c2c(Cl)ccc(-c3cc4ccccc4nc3[C@H](Cc3cc(F)cc(F)c3)NC(=O)Cc3c[nH]c4ccc(O)cc34)c21 [Example 10.17],2.4,> 10000,,,
"NC(=O)c1cc(-c2cc3[nH]ncc3nc2[C@H](Cc2cc(F)cc(F)c2)NC(=O)Cn2nc(C(F)F)c3c2C(F)(F)[C@@H]2C[C@H]32)ccc1Cl [Example 10.3, 2-Chloro-5-(5-((S)-1-(2-((3bS,4aR)-3-(difluoromethyl)-5,5-difluoro-3b,4,4a,5-tetrahydro-1H-cyclopropa[3,4]cyclopenta[1,2-c]pyrazol-1-yl)acetamido)-2-(3,5-difluorophenyl)ethyl)-1H-pyrazolo[4,3-b]pyridin-6-yl)benzamide]",84,> 10000,,,
"Cn1nc(NS(C)(=O)=O)c2c(Cl)ccc(-n3c([C@H](Cc4cc(F)cc(F)c4)NC(=O)Cn4nc(C(F)F)c5c4C(F)(F)[C@@H]4C[C@H]54)nc4cc(Cl)cc(Cl)c4c3=O)c21 (mixture of isomers) [Example 178, N—((S)-1-(5,7-dichloro-3-(4-chloro-1-methyl-3-(methylsulfonamido)-1H-indazol-7-yl)-4-oxo-3,4-dihydroquinazolin-2-yl)-2-(3,5-difluorophenyl)ethyl)-2-((3bS,4aR)-3-(difluoromethyl)-5,5-difluoro-3b,4,4a,5-tetrahydro-1H-cyclopropa[3,4]cyclopenta[1,2-c]pyrazol-1-yl)acetamide]",,,18.1,> 1000,
"COc1ccc2c(=O)n(-c3ccc(Cl)c4c(NS(C)(=O)=O)nn(C)c34)c([C@H](Cc3cc(F)cc(F)c3)NC(=O)Cn3nc(C(F)F)c4c3C(F)(F)[C@@H]3C[C@H]43)nc2c1F (single isomer, unassigned) [Example 76]",,,0.118,> 1000,
"CC(C)c1ccc(-c2c([C@H](Cc3cc(F)cc(F)c3)NC(=O)Cn3nc(C(F)F)c4c3C(F)(F)[C@@H]3C[C@H]43)nc3ncnn3c2N)cn1 [Example 10.32, N—((S)-1-(7-amino-6-(6-isopropylpyridin-3-yl)-[1,2,4]triazolo[1,5-a]pyrimidin-5-yl)-2-(3,5-difluorophenyl)ethyl)-2-((3bS,4aR)-3-(difluoromethyl)-5,5-difluoro-3b,4,4a,5-tetrahydro-1H-cyclopropa[3,4]cyclopenta[1,2-c]pyrazol-1-yl)acetamide]",54,> 10000,,,
"N#Cc1cccc(-c2cc3[nH]ncc3nc2[C@H](Cc2cc(F)cc(F)c2)NC(=O)Cn2nc(C(F)F)c3c2C(F)(F)[C@@H]2C[C@H]32)c1 [Example 10.2, N—((S)-1-(6-(3-cyanophenyl)-1H-pyrazolo[4,3-b]pyridin-5-yl)-2-(3,5-difluorophenyl)ethyl)-2-((3bS,4aR)-3-(difluoromethyl)-5,5-difluoro-3b,4,4a,5-tetrahydro-1H-cyclopropa[3,4]cyclopenta[1,2-c]pyrazol-1-yl)acetamide]",460,9700,,,
"O=C(Cn1nc(C(F)F)c2c1C(F)(F)[C@@H]1C[C@H]21)N[C@@H](Cc1cc(F)cc(F)c1)c1nc2cn[nH]c2cc1-c1cccc(C(=O)O)c1 [Example 10.10, 3-(5-((S)-1-(2-((3bS,4aR)-3-(difluoromethyl)-5,5-difluoro-3b,4,4a,5-tetrahydro-1H-cyclopropa[3,4]cyclopenta[1,2-c]pyrazol-1-yl)acetamido)-2-(3,5-difluorophenyl)ethyl)-1H-pyrazolo[4,3-b]pyridin-6-yl)benzoic acid]",140,> 10000,,,
"Cn1nc(NS(C)(=O)=O)c2c(Cl)ccc(-n3c([C@H](Cc4cc(F)cc(F)c4)NC(=O)Cn4nc(C(F)F)c5c4C(F)(F)[C@@H]4C[C@H]54)nc4cccc(Cl)c4c3=O)c21 (single isomer, unassigned) [Example 22.2]",130,> 1000,,,
"COc1cc(F)c2c(=O)n(-c3ccc(Cl)c4c(NS(C)(=O)=O)nn(C)c34)c([C@H](Cc3cc(F)cc(F)c3)NC(=O)Cn3nc(C(F)F)c4c3C(F)(F)[C@@H]3C[C@H]43)nc2c1 (single isomer, unassigned) [Example 186]",,,,> 1000,0.072
"Cn1nc(NS(C)(=O)=O)c2c(Cl)ccc(-c3cc4scnc4nc3C(Cc3cc(F)cc(F)c3)NC(=O)Cc3c[nH]c4ccc(O)cc34)c21 (stereo not drawn) [Example 1.7, N-(1-(6-(4-chloro-1-methyl-3-(methylsulfonamido)-1H-indazol-7-yl)thiazolo[4,5-b]pyridin-5-yl)-2-(3,5-difluorophenyl)ethyl)-2-(5-hydroxy-1H-indol-3-yl)acetamide]",11,> 100000,,,
"NC(=O)c1cc(-n2c([C@H](Cc3cc(F)cc(F)c3)NC(=O)Cn3nc(C(F)F)c4c3C(F)(F)[C@@H]3C[C@H]43)nc3ncccc3c2=O)ccc1Cl [Example 34, 2-Chloro-5-{2-[(1S)-1-{2-[(2S,4R)-9-(difluoromethyl)-5,5-difluoro-7,8-diazatricyclo[4.3.0.0^2,4]nona-1(6),8-dien-7-yl]acetamido}-2-(3,5-difluorophenyl)ethyl]-4-oxo-3H,4H-pyrido[2,3-d]pyrimidin-3-yl}benzamide]",,,6.93,> 10000,
"Cn1nc(NS(C)(=O)=O)c2c(Cl)ccc(-n3c([C@H](Cc4cc(F)cc(F)c4)NC(=O)Cn4nc(C(F)F)c5c4C(F)(F)[C@@H]4C[C@H]54)nc4c(F)cc(F)cc4c3=O)c21 (single isomer, unassigned) [Example 74]",,,0.0513,> 1000,
"CCOc1ccc2c(=O)n(-c3ccc(Cl)c4c(NS(C)(=O)=O)nn(C)c34)c([C@H](Cc3cc(F)cc(F)c3)NC(=O)Cn3ccc(C4CC4)n3)nc2n1 (single isomer, unassigned) [Example 59.1]",,,47,> 1000,
"Cn1nc(NS(C)(=O)=O)c2cccc(-n3c(C(Cc4cc(F)cc(F)c4)NC(=O)Cn4nc(C(F)F)c5c4C(F)(F)[C@@H]4C[C@H]54)nc4ccccc4c3=O)c21 (single isomer, unassigned) [Example 69]",,,78.3,> 1000,
"NS(=O)(=O)c1ccc(-c2cc3[nH]ncc3nc2[C@H](Cc2cc(F)cc(F)c2)NC(=O)Cn2nc(C(F)F)c3c2C(F)(F)[C@@H]2C[C@H]32)cc1 [Example 24, 2-((3bS,4aR)-3-(difluoromethyl)-5,5-difluoro-3b,4,4a,5-tetrahydro-1H-cyclopropa[3,4]cyclopenta[1,2-c]pyrazol-1-yl)-N—((S)-2-(3,5-difluorophenyl)-1-(6-(4-sulfamoylphenyl)-1H-pyrazolo[4,3-b]pyridin-5-yl)ethyl)acetamide]",,,1370,> 10000,
"Nc1c(-c2ccc3c(c2)C(=O)NC3)c([C@H](Cc2cc(F)cc(F)c2)NC(=O)Cn2nc(C(F)F)c3c2C(F)(F)[C@@H]2C[C@H]32)nc2ncnn12 [Example 62, N—((S)-1-(7-amino-6-(3-oxoisoindolin-5-yl)-[1,2,4]triazolo[1,5-a]pyrimidin-5-yl)-2-(3,5-difluorophenyl)ethyl)-2-((3bS,4aR)-3-(difluoromethyl)-5,5-difluoro-3b,4,4a,5-tetrahydro-1H-cyclopropa[3,4]cyclopenta[1,2-c]pyrazol-1-yl)acetamide]",,,86.3,> 10000,
"Cn1ccc2nc([C@@H](Cc3cc(F)cc(F)c3)NC(=O)Cn3nc(C(F)F)c4c3C(F)(F)[C@@H]3C[C@H]43)c(-c3ccc(Cl)c4c(NS(C)(=O)=O)nn(C)c34)cc21 (single isomer, unassigned) [Example 121]",,,171,> 10000,
"CC(C)S(=O)(=O)NC(=O)c1cc(-c2cc3[nH]ncc3nc2[C@H](Cc2cc(F)cc(F)c2)NC(=O)Cn2nc(C(F)F)c3c2C(F)(F)[C@@H]2C[C@H]32)ccc1F [Example 10.27, 5-(5-((S)-1-(2-((3bS,4aR)-3-(difluoromethyl)-5,5-difluoro-3b,4,4a,5-tetrahydro-1H-cyclopropa[3,4]cyclopenta[1,2-c]pyrazol-1-yl)acetamido)-2-(3,5-difluorophenyl)ethyl)-1H-pyrazolo[4,3-b]pyridin-6-yl)-2-fluoro-N-(isopropylsulfonyl)benzamide]",820,> 10000,,,
"CSc1nc2nc(C(Cc3cc(F)cc(F)c3)NC(=O)Cn3nc(C(F)F)c4c3C(F)(F)[C@@H]3C[C@H]43)c(-c3ccc(Cl)c4c(NS(C)(=O)=O)nn(C)c34)cc2s1 (stereo partly drawn) [Example 193, N-(1-(6-(4-chloro-1-methyl-3-(methylsulfonamido)-1H-indazol-7-yl)-2-(methylthio)thiazolo[4,5-b]pyridin-5-yl)-2-(3,5-difluorophenyl)ethyl)-2-((3bS,4aR)-3-(difluoromethyl)-5,5-difluoro-3b,4,4a,5-tetrahydro-1H-cyclopropa[3,4]cyclopenta[1,2-c]pyrazol-1-yl)acetamide]",,,0.18,> 10000,
CC(C)c1ccc(-n2c([C@H](Cc3cc(F)cc(F)c3)NC(=O)Cc3c[nH]c4ccc(O)cc34)nc3ccccc3c2=O)cn1 [Example 10.33],49,> 10000,,,
